Literature values as cited in patent US20210353783A1, “IMAGING AGENTS FOR RADIOLABELING EXOGENOUS AND ENDOGENOUS ALBUMIN” (CENTURION BIOPHARMA CORPORATION, priority 2018, published 2021).

Columns and labels:
[1] = human, after intravenous administration, bound to cysteine-34 of endogenous albumin
[2] = phase 1-3 clinical trials
circulating albumin = circulating albumin (Homo sapiens, UniProt P02768)
circulating albumin, sequence (P02768 25-609): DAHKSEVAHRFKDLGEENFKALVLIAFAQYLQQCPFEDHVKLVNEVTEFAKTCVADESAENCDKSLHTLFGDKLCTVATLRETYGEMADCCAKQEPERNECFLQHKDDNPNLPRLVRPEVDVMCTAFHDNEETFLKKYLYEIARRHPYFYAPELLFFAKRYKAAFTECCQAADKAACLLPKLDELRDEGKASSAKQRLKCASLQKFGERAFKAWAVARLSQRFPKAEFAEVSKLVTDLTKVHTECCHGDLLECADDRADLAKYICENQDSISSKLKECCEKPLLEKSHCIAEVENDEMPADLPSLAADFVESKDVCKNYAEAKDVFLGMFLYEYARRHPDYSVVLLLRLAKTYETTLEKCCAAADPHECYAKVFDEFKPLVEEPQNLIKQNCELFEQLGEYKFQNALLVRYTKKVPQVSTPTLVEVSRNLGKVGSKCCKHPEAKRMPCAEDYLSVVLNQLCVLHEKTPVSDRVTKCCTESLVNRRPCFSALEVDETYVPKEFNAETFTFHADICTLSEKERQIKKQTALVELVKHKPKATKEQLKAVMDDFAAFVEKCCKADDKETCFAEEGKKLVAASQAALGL

Compound: COc1cccc2c1C(=O)c1c(O)c3c(c(O)c1C2=O)C[C@@](O)(/C(CO)=N/NC(=O)CCCCCN1C(=O)C=CC1=O)C[C@@H]3O[C@H]1C[C@H](N)[C@H](O)[C@H](C)O1 [aldoxorubicin, (6-maleimidocaproyl)hydrazone derivative of doxorubicin]
- t1/2 in man [1]: 20 to 21 h
- cardiotoxicity [2]: lack of cardiotoxicity
- increase in the maximum tolerated dose (MTD) compared to conventional doxorubicin [2]: 3.5 fold
- binding to circulating albumin (circulating albumin): rapidly and selectively bound to circulating albumin within a few minutes
